This assay addresses hCA II (Homo sapiens, UniProt P00918). As to the kind of experiment: stopped-flow CO2 hydrase assay, hCA II inhibition. It is filed as biochemical. The settings on record: ratio of Ki values versus 3b.

For the substance “[{(η^5-C5H4)–CH = N–N(H)C(O)–C6H4-4–SO2NH2}]Mn(CO)3 [2b]”, the “fold more potent against hCA II than ferrocenyl derivative 3b” value was 8 fold.

“[{(η^5-C5H4)–CH = N–N(H)C(O)–CH2CH2–NH–C6H4-4–SO2NH2}]FeCp [3c]”: the “fold potency decrease against hCA II when compared to 3b” value worked out at 4.5 fold.

With “[{(η^5-C5H4)–CH=N–N(H)C(O)–C6H4-4–SO2NH2}]Re(CO)3 [1b]”, the “fold more potent against hCA II than ferrocenyl derivative 3b” value is 8 fold.

The record behind these values is publication PMC6327986 (Journal of Enzyme Inhibition and Medicinal Chemistry, 2019).
